In US20250107543A1, “TREATMENT OF AGRICULTURAL, FOOD AND RELATED PRODUCTS FOR ELIMINATING CONTAMINANTS AND ENCHANCING SHELF-LIFE” (priority 2022, published 2025):

How the values were obtained:
[1] = system: coliform; assay: Coliform Count of treated whole red chilli; details: whole red chilli 12 kg's
Protocol: (§1) This experiment illustrates the treatment of aerobic micro-organisms, yeast, mould, coliform, E. coli, Salmonella and fat soluble metabolites contaminated whole red chilli.
(§2) The data presented in Table-2 illustrate the efficacy of the present disclosure in detoxifying contaminated whole red chillies. […].
(§3) The red chillies were exposed with Trioxygen for 2 minutes. The products were put under pressure of trioxygen gas for a span of 9 minutes to 26 minutes. Based on the commodity characteristics, the exposure of trioxygen gas was repeated 10 times. Trioxygen gas having a capacity 500 g/h was generated by the trioxygen generator (on site) of the system with a constant oxygen flow rate and delivered to the decontamination chamber through silicon tube. The whole red chillies were then treated to heated air.

[2] = system: Salmonella; assay: Salmonella presence in treated whole red chilli; details: whole red chilli 12 kg's, Trial 1
Protocol: as §1, §2, §3

[3] = C17H12O6 content of treated whole red chilli; details: whole red chilli 12 kg's
Protocol: as §1, §2, §3

[4] = C17H12O6 content of treated corn
Protocol: The data presented in Table-4 illustrates the efficiency of the system of the present disclosure in detoxifying pre-conditioned contaminated corn.
Three sets of C17H12O6 contaminated 70 kg's of corn were separately decontaminated in the system of the present disclosure. In this case, corn samples were pre-conditioned with a pre-conditioning liquid and exposed to trioxygen gas for up to 5 minutes. The products were put under pressure of trioxygen gas for a span of 9 minutes to 26 minutes. Based on the commodity characteristics, the exposure of trioxygen gas was repeated 20 times. Trioxygen gas having capacity 500 g/h was generated by the trioxygen generator of the system (on site) with a constant oxygen flow rate and delivered to the decontamination chamber through silicon tube. All 3 sets of products were air dried and then analyzed for the presence of the contaminant and the results obtained are summarized in Table-4

[5] = system: weevils and weevil eggs; assay: Shelf-Life Assessment of Corn; parameters: key to Visual observation: Powder at the bottom of bag / Weevils/Insects / Visual observation: Pin holes on grain: ✓ Not observed; x Observed; details: for Visual observation: Pin holes on grain / Visual observation: Powder at the bottom of bag / Weevils/Insects: Treated sample
Protocol: (§4) The data presented in Table-5 illustrates the efficiency of the system of the present disclosure in pre-conditioning and deactivation of weevils and weevil eggs results in delayed occurrence of insect infestation in grains.
(§5) Grains such as Dry corn, Groundnut, Rice & Wheat were separately pre-conditioned and decontaminated in the system of the present disclosure. Grains were exposed to trioxygen gas for up to 5 minutes. The products were put under pressure of trioxygen gas for a span of 9 minutes to 26 minutes. Trioxygen gas having capacity 500 g/h was generated by the trioxygen generator of the system (on site) with a constant oxygen flow rate and delivered to the decontamination chamber through silicon tube. All products were treated with hot air and then analyzed for the presence of the weevils and weevil eggs the results obtained are summarized in Table-5.

[6] = system: weevils and weevil eggs; assay: Shelf-Life Assessment of Rice; parameters: key to Visual observation: Pin holes on grain / Visual observation: Powder at the bottom of bag / Weevils/Insects: ✓ Not observed; x Observed; details: for Visual observation: Pin holes on grain / Visual observation: Powder at the bottom of bag / Weevils/Insects: Treated sample
Protocol: as §4, §5

[7] = Pesticide residue in treated whole red chilli: Azoxystrobin; details: whole red chilli 12 kg's, Trial 1; HOCL and Trioxygen simultaneously
Source text: (§6) This experiment illustrates the treatment of whole red chilli contaminated with pesticide residues.
(§7) The data presented in Table-6 illustrates the efficacy of the present disclosure in detoxifying contaminated whole red chillies. Sets of whole red chillies of 12 kg's contaminated with pesticides like Azoxystrobin, Imidacloprid Novaluron and Myclobutanil were used for the experiment. An inert gas (Nitrogen & Carbon-di-oxide) were introduced into the chamber filled with the material to drive out existing air and oxygen in the chamber. Pre-conditioning was carried out with HOCL and trioxygen being introduced simultaneously in decontamination chamber with faster decontamination process in the system with a shorter timeline protocol.
(§8) The red chillies were exposed with HOCL and Trioxygen simultaneously for 2 minutes. The products were put under pressure of 2 bar of trioxygen gas for a span of 9 minutes to 26 minutes. Based on the commodity characteristics, the exposure of trioxygen gas was repeated 10 times. Trioxygen gas having a capacity 500 g/h was generated by the trioxygen generator (on site) of the system with a constant oxygen flow rate and delivered to the decontamination chamber through silicon tube. The whole red chillies were then treated to heated air.

[8] = Pesticide residue in treated whole red chilli: Imidacloprid; details: whole red chilli 12 kg's, Trial 1; HOCL and Trioxygen simultaneously
Source text: as §6, §7, §8

Compound: O=[O+][O-] [Trioxygen]
- Coliform Count, % Reduction ([1]; Trial 1): 93%
- Coliform Count, Results After Treatment ([1]; Trial 1, before treatment 2.7 × 10^4 cfu/g): 1.82 × 10^3 cfu/g
- Coliform Count, % Reduction ([1]; Trial 3): 100%
- Coliform Count, Results After Treatment ([1]; Trial 3, before treatment 5.45 × 10^3 cfu/g): <10 cfu/g
- Salmonella, % Reduction [2]: 100%
- Salmonella, Results After Treatment ([2]; before treatment Present/25 g): Absent/25 g
- C17H12O6, % Reduction ([3]; Trial 2): 73%
- C17H12O6, % Reduction ([3]; Trial 3): 76%
- C17H12O6, % Reduction ([4]; Sr. No. 1, 70 kg's): 100%
- C17H12O6, % Reduction ([4]; Sr. No. 2, 70 kg's): 85%
- C17H12O6, % Reduction ([4]; Sr. No. 3, 70 kg's): 100%
- No weevil infestation in system treated samples up to [5]: up to 6 months
- Treatment effective in delaying infestation up to [5]: up to 6 months
- Remarks on Weevils/Insects, Treated ([5]; Post 1.5 Months): No weevils/insects
- Remarks on Weevils/Insects, Treated ([5]; Post 2 Months): No weevils/insects
- Remarks on Weevils/Insects, Treated ([5]; Post 3 Months): No weevils/insects
- Remarks on Weevils/Insects, Treated ([5]; Post 5 Months): No weevils/insects
- Remarks on Weevils/Insects, Treated: cream coloured insect observed alive ([5]; Post 6 Months): 1 cream coloured
- Remarks on Weevils/Insects, Treated: cream coloured insect observed alive ([5]; Post 7 Months): 3 cream coloured
- Visual observation: Pin holes on grain ([5]; 1.5 Months): ✓
- Visual observation: Powder at the bottom of bag ([5]; 1.5 Months): ✓
- Weevils/Insects ([5]; 1.5 Months): ✓
- Visual observation: Pin holes on grain ([5]; 2 Months): ✓
- Visual observation: Powder at the bottom of bag ([5]; 2 Months): ✓
- Weevils/Insects ([5]; 2 Months): ✓
- Visual observation: Pin holes on grain ([5]; 3 Months): ✓
- Visual observation: Powder at the bottom of bag ([5]; 3 Months): ✓
- Weevils/Insects ([5]; 3 Months): ✓
- Visual observation: Pin holes on grain ([5]; 5 Months): ✓
- Visual observation: Powder at the bottom of bag ([5]; 5 Months): ✓
- Weevils/Insects ([5]; 5 Months): ✓
- Visual observation: Pin holes on grain ([5]; 6 Months): ✓
- Visual observation: Powder at the bottom of bag ([5]; 6 Months): ✓
- Weevils/Insects ([5]; 6 Months): x
- Visual observation: Pin holes on grain ([5]; 7 Months): ✓
- Visual observation: Powder at the bottom of bag ([5]; 7 Months): ✓
- Weevils/Insects ([5]; 7 Months): x
- Number of weevils in treated sample compared to those in control, times less ([5]; at month 7): 5 times
- Number of weevils in treated sample compared to those in control, times less ([5]; at month 8): 1.5 times
- Number of weevils in treated sample compared to those in control ([5]; at month 9): No difference
- No weevil infestation in system treated samples up to [6]: up to 6 months
- Treatment effective in delaying infestation up to [6]: up to 6 months
- Remarks on Weevils/Insects, Treated ([6]; Post 1.5 Months): No weevils/insects seen
- Remarks on Weevils/Insects, Treated ([6]; Post 2 Months): No weevils/insects seen
- Remarks on Weevils/Insects, Treated ([6]; Post 3 Months): No weevils/insects seen
- Remarks on Weevils/Insects, Treated ([6]; Post 5 Months): No weevils/insects seen
- Remarks on Weevils/Insects, Treated ([6]; Post 6 Months): No weevils/insects seen
- Remarks on Weevils/Insects, Treated: black insect alive ([6]; Post 7 Months): insects and 1 black insect
- Remarks on Weevils/Insects, Treated: small cream coloured insects alive ([6]; Post 7 Months): 1 small cream coloured
- Visual observation: Pin holes on grain ([6]; 1.5 Months): ✓
- Visual observation: Powder at the bottom of bag ([6]; 1.5 Months): ✓
- Weevils/Insects ([6]; 1.5 Months): ✓
- Visual observation: Pin holes on grain ([6]; 2 Months): ✓
- Visual observation: Powder at the bottom of bag ([6]; 2 Months): ✓
- Weevils/Insects ([6]; 2 Months): ✓
- Visual observation: Pin holes on grain ([6]; 3 Months): ✓
- Visual observation: Powder at the bottom of bag ([6]; 3 Months): ✓
- Weevils/Insects ([6]; 3 Months): ✓
- Visual observation: Pin holes on grain ([6]; 5 Months): ✓
- Visual observation: Powder at the bottom of bag ([6]; 5 Months): ✓
- Weevils/Insects ([6]; 5 Months): ✓
- Visual observation: Pin holes on grain ([6]; 6 Months): ✓
- Visual observation: Powder at the bottom of bag ([6]; 6 Months): ✓
- Weevils/Insects ([6]; 6 Months): ✓
- Visual observation: Pin holes on grain ([6]; 7 Months): ✓
- Visual observation: Powder at the bottom of bag ([6]; 7 Months): ✓
- Weevils/Insects ([6]; 7 Months): x
- Azoxystrobin, % Reduction [7]: 62%
- Imidacloprid, % Reduction [8]: 40%
